Data taken from patent US20220008430A1, “METHODS OF TREATING SUBJECTS HAVING PLATELET DYSFUNCTION WITH IV MELOXICAM” (priority 2018, published 2022).
Read-outs that look alike come from different tables or passages of the source.

Key:
COX-2 / COX-1 = conditions: ratio of IC80 of COX-2 to IC80 of COX-1; Warner 1999; cited from earlier work
platelet function [1] = experiment: PFA-100 closure time, ex vivo whole blood, CADP reagent cartridge; assay type: cell-based, human
Procedure: (§1) The PFA-100 device determines closure time by simulating platelet adhesion and aggregation following vascular injury.
(§2) Study subjects (n=13) had approximately 20 mL of whole blood collected in tubes containing 3.2% (0.105 M) buffered sodium citrate (1 part anticoagulant to 9 parts blood).
(§3) Assessment of platelet function: Platelet function was evaluated using the PFA-100 Platelet Function Analyzer (Siemens Healthcare Diagnostics, Deerfield, Ill.). […] Use of this device to measure the effect of drugs on platelet adhesion is well documented. The PFA-100 device determines a sample closure time by simulating the platelet adhesion and aggregation that occurs following vascular injury. Analysis was performed using both collagen with epinephrine (CEPI) and collagen with adenosine diphosphate (CADP) reagent cartridges. […] Whole blood aliquots were treated according to the test condition and incubated for approximately 10 minutes prior to analysis in the PFA-100. All blood samples were analyzed within 2.5 hours of the time of collection. PFA-100 closure time results were reported for each test condition and reagent cartridge. […] Samples outside this range were excluded from the primary analysis.
(§4) Statistical analysis: Treatment effect on CT was analyzed using an analysis of variance (ANOVA). […] Pairwise comparisons were performed; nominal P-values were reported without controlling for multiplicity. Subgroup analysis by gender was also performed. All analyses were performed separately for each reagent.

platelet function [2] = experiment: PFA-100 closure time, ex vivo whole blood, CEPI reagent cartridge; assay type: cell-based, human
Procedure: as §1, §2, §3, §4

[3] = cited from earlier work
pain [4] = conditions: intravenous; Prescribing Information; cited from earlier work
platelet aggregation = conditions: healthy volunteers; 0.4 mg/kg; previous studies; cited from earlier work
pain [5] = experiment: Time course of analgesic effect; assay type: in vivo, human; conditions: meloxicam administration as disclosed (IV)
[6] = cited from earlier work; remark: listed apart in the source
[7] = all eligible subjects (12 subjects), 2.5 μg/mL
[8] = all eligible subjects (12 subjects), 5 μg/mL

CC(C)Cc1ccc(C(C)C(=O)O)cc1 (stereo not drawn) [Ibuprofen]
COX-2/COX-1 IC80 ratio (COX-2 / COX-1): 2.6

O=C(c1ccccc1)c1ccc2n1CCC2C(=O)O (stereo not drawn) [Ketorolac]
LS mean closure time (platelet function [1]; [7]): 82.08 s | LS mean closure time (platelet function [1]; [8]): 86.36 s | difference in closure time vs untreated control (platelet function [1]; all tested concentrations): no statistically significant differences | LS mean closure time (platelet function [1]; final analysis set (8 subjects), 2.5 μg/mL in whole blood): 79.41 s | LS mean closure time (platelet function [1]; final analysis set (8 subjects), 2.5 μg/mL in whole blood, listed as ketorolac): 79.41 (5.31) seconds | LS mean closure time (platelet function [1]; final analysis set (8 subjects), 5 μg/mL in whole blood): 87.95 s | LS mean closure time (platelet function [1]; final analysis set (8 subjects), 5 μg/mL in whole blood, listed as ketorolac): 87.95 (5.66) seconds | LS mean closure time (platelet function [2]; [7]): 193.17 s | LS mean closure time (platelet function [2]; [8]): 191.58 s | LS mean closure time (platelet function [2]; final analysis set (8 subjects), 2.5 μg/mL): 180.87 s | LS mean closure time (platelet function [2]; final analysis set (8 subjects), 5 μg/mL): 143.38 s | prolongation in closure time vs untreated control (platelet function [2]; therapeutic (and for meloxicam IV supratherapeutic) concentrations): significant prolongations | peak concentration ([3]; following 15-mg IV dose): ~2.5 µg/mL | peak concentration ([3]; following 30-mg IV dose): ~5 µg/mL | time to onset of pain relief (pain [4]): up to 30 minutes | bleeding time (platelet aggregation): prolonged bleeding times | epinephrine-, adenosine-, and collagen-induced platelet aggregation (platelet aggregation): significant inhibition | COX-2/COX-1 IC80 ratio (COX-2 / COX-1): 294

CS(=O)(=O)c1ccc(C2=C(c3ccccc3)C(=O)OC2)cc1 [Rofecoxib]
COX-2/COX-1 IC80 ratio (COX-2 / COX-1): <0.05

COc1ccc2cc([C@H](C)C(=O)O)ccc2c1 [Naproxen]
COX-2/COX-1 IC80 ratio (COX-2 / COX-1): 3

CC(=O)Oc1ccccc1C(=O)O [Aspirin, acetylsalicylic acid]
COX-2/COX-1 IC80 ratio (COX-2 / COX-1): 3.8

Cc1cnc(NC(=O)C2=C(O)c3ccccc3S(=O)(=O)N2C)s1 [Meloxicam, 4-hydroxy-2-methyl-N-(5-methyl-2-thiazolyl)-2H-1,2-benzothiazine-3-carboxamide-1,1-dioxide]
therapeutic window (pain [5]): at least 24 hours | water solubility [6]: poor water solubility
